Data: publication PMC7595621, “Quorum sensing N-Acyl homoserine lactones are a new class of anti-schistosomal” (PLoS Neglected Tropical Diseases, 2020)
pEC50: −log10 of the molar value.

Legend:
S. mansoni schistosomula = test: Screening of S. mansoni schistosomula (Roboworm, motility and phenotype); assay type: cell-based, Schistosoma mansoni; details: for Selectivity index, schistosomula motility: HepG2 CC50 / schistosomula motility EC50; for Selectivity index, schistosomula phenotype: HepG2 CC50 / schistosomula phenotype EC50; for pEC50: Schistosoma mansoni, average across motility and phenotype, read-out: average EC50 for phenotype and motility, schistosomula; for concentrations at which schistosomula phenotype was affected / concentrations at which schistosomula motility was affected: titration 10 to 0.625 μM; for concentrations at which schistosomula phenotype was affected: hit below -0.15; for concentrations at which schistosomula motility was affected: hit below -0.35
Method: Biomphalaria glabrata (NMRI and the previously described pigmented strains) snails infected with S. mansoni (Puerto Rican strain) were shed for 2 hrs under light at 26 °C. Cercariae were collected, mechanically transformed into schistosomula and subsequently prepared for high throughput screening (HTS) on the Roboworm platform as previously described. Schistosomula were cultured in Basch Media (composed of BME media, 10% M169 media, 0.5x MEM vitamins, 10% Schneider’s insect media, 15.6mM Hepes, 5% heat inactivated FBS, 2x Antibiotic/anti-mycotic (Sigma-Aldrich, UK) solution (final concentrations shown)).
EC50 values were calculated from the titrated concentrations by non-linear regression, after log transformation of concentrations and data normalization using GraphPad Prism 7.02.
Fig 2 Anti-schistosomula activity of the eight analogues compared to parent compound 1. […] Test plates were incubated at 37°C for 72 hrs in an atmosphere containing 5% CO2. At 72hrs, schistosomula were scored using the Roboworm platform for both motility (A) and phenotype (B). Any compound that induced a score of below -0.35 for motility (A) and -0.15 for phenotype (B) were considered a hit. Black squares indicate the most positive effect on motility or phenotype; grey scale from dark grey to lighter shades of grey indicates a progressive reduced compound efficacy; white squares indicate no effect on either phenotype or motility. Z´ values for this screen was 0.41741 for motility and 0.57275 for phenotype. (C) Phenotypes of schistosomula when treated with 10μM of each of the test compounds and controls.
Supplementary file pntd.0008630.s003.tif: S1 Fig Initial schistosomula screens of the 14 compounds and their intermediate analogues. […] Test plates were incubated at 37°C for 72 hrs in an atmosphere containing 5% CO2. At 72hrs, schistosomula were scored using the Roboworm platform for both motility and phenotype as previously described. A) Of the 14 compounds evaluated, two fell within the hit region. Z’ scores for motility and phenotype were 0.40079 and 0.56846 respectively. […] Z´ scores for motility and phenotype were 0.37864 and 0.47882 respectively. *Average EC50 value across motility and phenotype is presented for each compound. (TIF) Click here for additional data file.

HepG2 cells = test: Cell cytotoxicity assay (MTT); assay type: cell-based, human; details: 24 hr
Method: The cytotoxicity of each compound was assessed on human HepG2 cells as described previously [17]. Briefly, 2 x 10^4 cells/well were seeded in black walled 96-well microtiter plates (Fisher Scientific, Loughborough, UK) and incubated for 24 hr at 37°C in a humidified atmosphere containing 5% CO2. […] Following a further incubation for 24 hr, the MTT assay was performed as previously described [17, 27]. Dose response curves were obtained by non-linear regression, after log transformation of concentrations and data normalization using GraphPad Prism 7.02.

O=C(CBr)NC1CCSC1=O (stereo not shown) [Compound 3, 2-bromo-N-(2-oxotetrahydrothiophen-3-yl)acetamide]
Selectivity index, schistosomula motility (S. mansoni schistosomula): 9.8 | Selectivity index, schistosomula phenotype (S. mansoni schistosomula): 8.1 | pEC50 (S. mansoni schistosomula; 72 hrs): 5.68 | concentrations at which schistosomula phenotype was affected (S. mansoni schistosomula; 72 hrs): all concentrations tested | concentrations at which schistosomula motility was affected (S. mansoni schistosomula; 72 hrs): all concentrations tested | fold increase in HepG2 cytotoxicity in comparison to compound 1 (HepG2 cells): 2.3 fold

O=C(CBr)NC1CCOC1=O (stereo not shown) [Compound 1, 2-bromo-N-(2-oxotetrahydrofuran-3-yl)acetamide]
effect on schistosomula motility and phenotype metrics in initial screen (S. mansoni schistosomula; 10 μM, 72 hrs): negatively affected both schistosomula motility and phenotype metrics | Selectivity index, schistosomula motility (S. mansoni schistosomula): 11.5 | Selectivity index, schistosomula phenotype (S. mansoni schistosomula): 7.9 | pEC50 (S. mansoni schistosomula; 72 hrs): 5.33 | concentrations at which schistosomula phenotype was affected (S. mansoni schistosomula; 72 hrs): from 10 to 1.25 | concentrations at which schistosomula motility was affected (S. mansoni schistosomula; 72 hrs): all concentrations tested | good compound effect on schistosomula observed down to a concentration (S. mansoni schistosomula; titration of initial hits, S1B Fig): 1.25 µM
